Measured values published in US10266542B2, “EZH2 inhibitors” (priority 2017, dated 2019).
Like-named read-outs stand apart in the source and are kept apart here. Values belong to the compound of their own block, whether it stands above or below them.

What was measured:
[1] = tested on: EZH2-mediated histone H3 Lys27 trimethylation in Pfeiffer cells (mutant EZH2 A677G); assay: Tri-Methyl Histone H3 (Lys 27) Sandwich ELISA in Pfeiffer cells; format: cell-based, human
Procedure: Briefly, Pfeiffer cells were cultured in RPMI medium supplemented with 10% fetal bovine serum and 1% penicillin and 1% streptomycin in 96 well culture plates at 37° C. to a density of 8000 cells/90 μl/well and the cells were harvested. […] The plates were incubated at 37° C. for 96 hours.
After incubation, the cells were pelleted by centrifugation in a pre-cooled 4° C. rotor at 1,100 rpm for 10 min and the supernatant was removed by aspiration. The cell pellet was resuspended in 55 μl of Lysis Buffer (0.4M HCl) and incubated on ice with periodic shaking for 30 minutes. The lysed cells were subjected to centrifugation at 4,200 rpm for 10 min at 4° C. and the supernatant containing acid-soluble proteins was collected and the remainder discarded.
A 65 μl aliquot of each cell lysate was added to a well of a microwell strip, the microwells were sealed using tape and incubated either at 37° C. for two hours or at 4° C. overnight. After incubation, the tape was removed at the microwells were washed four times using 200 μl of 1× Wash Buffer. To each washed microwell, a 100 μl aliquot of an anti-trimethyl histone H3 Lys27 Detection Antibody solution was added and the microwells were incubated at 37° C. for one hour. The Detection Antibody solution was removed by aspiration and the wells were washed four times each using 200 μl of 1× Wash Buffer.
A 100 μl aliquot of an HRP-linked secondary antibody was added to each well, the wells were sealed with tape and incubated at 37° C. for 30 min. The HRP-linked secondary antibody solution was removed by aspiration and the wells were washed four times using 200 μl of 1× Wash Buffer. A 100 μl aliquot of a TMB substrate was added to each well, the wells were sealed with tape and incubated at 37° C. for 10 min or 25° C. for 30 min. The reaction was stopped by the addition of 100 μl aliquot of a STOP solution and the plate was shaken briefly. The degree of histone H3 trimethylation was determined using a spectrophotometric readout by measuring the absorbance at 450 nm and then calculating the amount of trimethylated histone H3.

purified EZH2 enzyme = purified EZH2 enzyme (Homo sapiens (Human), UniProt Q15910); assay: biochemical; conditions: purified EZH2, 4 μM SAM, histone 3.3 substrate, 30° C. three hours, fluorescence polarization readout
[2] = Pfeiffer cells (DLBCL, EZH2 A677G), 96 hours incubation, H3K27me3 ELISA, absorbance at 450 nm, read-out: IC50
[3] = Homo sapiens, Pfeiffer cells (DLBCL, EZH2 A677G), 96 hours incubation, H3K27me3 ELISA, absorbance at 450 nm, read-out: IC50

Compound: 5,8-dichloro-7-(3,5-dimethyltriazol-4-yl)-2-[(7-methyl-5-oxo-1,6-dihydropyrrolo[2,3-c]pyridin-4-yl)methyl]-3,4-dihydroisoquinolin-1-one [Example 15]
- IC50 [1, 2]: 6 nM
- IC50 (purified EZH2 enzyme): 2 nM

Compound: 7-[[5-bromo-8-chloro-7-(3,5-dimethyltriazol-4-yl)-1-oxo-3,4-dihydroisoquinolin-2-yl]methyl]-4-methyl-5H-furo[3,2-c]pyridin-6-one [Example 7]
- IC50 [1, 2]: 30 nM
- IC50 (purified EZH2 enzyme): 3 nM

Compound: Cc1[nH]c(=O)c(CN2CCc3c(Cl)cc(OC(C)C)c(Cl)c3C2=O)c2occc12 [Example 1, 7-((5,8-dichloro-7-isopropoxy-1-oxo-3,4-dihydroisoquinolin-2(1H)-yl)methyl)-4-methylfuro[3,2-c]pyridin-6(5H)-one]
- IC50 ([1]; Homo sapiens, Pfeiffer, 96 h): 759 nM
- IC50 (purified EZH2 enzyme): 6 nM

Compound: Cc1[nH]c(=O)c(CN2CCc3c(Cl)cc(N4CC5(CCOCC5)C4)c(Cl)c3C2=O)c2occc12 [Example 2, 7-((5,8-dichloro-1-oxo-7-(7-oxa-2-azaspiro[3.5]nonan-2-yl)-3,4-dihydroisoquinolin-2(1H)-yl)methyl)-4-methylfuro[3,2-c]pyridin-6(5H)-one]
- IC50 [1, 3]: 273 nM
- IC50 (purified EZH2 enzyme): 5 nM

Compound: CCN(c1cc(Cl)c2c(c1Cl)C(=O)N(Cc1c(=O)[nH]c(C)c3ccoc13)CC2)C1CCOCC1 [Example 3, 7-((5,8-dichloro-7-(ethyl(tetrahydro-2H-pyran-4-yl)amino)-1-oxo-3,4-dihydroisoquinolin-2(1H)-yl)methyl)-4-methylfuro[3,2-c]pyridin-6(5H)-on]
- IC50 [1, 3]: 31 nM
- IC50 (purified EZH2 enzyme): 5 nM

Compound: Cc1[nH]c(=O)c(CN2CCc3c(Cl)cc(OC(C)C)c(Cl)c3C2=O)c2cc[nH]c12 [Example 4, 5,8-dichloro-7-isopropoxy-2-((7-methyl-5-oxo-5,6-dihydro-1H-pyrrolo[2,3-c]pyridin-4-yl)methyl)-3,4-dihydroisoquinolin-1(2H)-one]
- IC50 [1, 3]: 1040 nM
- IC50 (purified EZH2 enzyme): 202 nM

Compound: Cc1[nH]c(=O)c(CN2CCc3c(Cl)cc(N4CC5(CCOCC5)C4)c(Cl)c3C2=O)c2cc[nH]c12 [Example 5, 5,8-dichloro-2-((7-methyl-5-oxo-5,6-dihydro-1H-pyrrolo[2,3-c]pyridin-4-yl)methyl)-7-(7-oxa-2-azaspiro[3.5]nonan-2-yl)-3,4-dihydroisoquinolin-1(2H)-one]
- IC50 [1, 3]: 17 nM
- IC50 (purified EZH2 enzyme): < 0.5 nM

Compound: Cc1[nH]c(=O)c(CN2CCc3ccc(OC(C)C)c(Cl)c3C2=O)c2occc12 [Example 6, 7-((8-chloro-7-isopropoxy-1-oxo-3,4-dihydroisoquinolin-2(1H)-yl)methyl)-4-methylfuro[3,2-c]pyridin-6(5H)-one]
- IC50 [1, 3]: 44 nM
- IC50 (purified EZH2 enzyme): 7 nM

Compound: Cc1cc2c(C)[nH]c(=O)c(CN3CCc4c(Cl)cc(OC(C)C)c(Cl)c4C3=O)c2o1 [Example 8, 7-((5,8-dichloro-7-isopropoxy-1-oxo-3,4-dihydroisoquinolin-2(1H)-yl)methyl)-2,4-dimethylfuro[3,2-c]pyridin-6(5H)-one]
- IC50 (purified EZH2 enzyme): 95 nM

Compound: COC(c1cc(Cl)c2c(c1Cl)C(=O)N(Cc1c(=O)[nH]c(C)c3ccoc13)CC2)C1COC1 (centres unmarked) [Example 9, 7-((5,8-dichloro-7-(methoxy(oxetan-3-yl)methyl)-1-oxo-3,4-dihydroisoquinolin-2(1H)-yl)methyl)-4-methylfuro[3,2-c]pyridin-6(5H)-one]
- IC50 ([1]; Homo sapiens, Pfeiffer, 96 h): 126 nM
- IC50 (purified EZH2 enzyme): 4 nM

Compound: COC(c1cc(Cl)c2c(c1Cl)C(=O)N(Cc1c(=O)[nH]c(C)c3ccoc13)CC2)C1CN(C)C1 (centres unmarked) [Example 10, 7-((5,8-dichloro-7-(methoxy(1-methylazetidin-3-yl)methyl)-1-oxo-3,4-dihydroisoquinolin-2(1H)-yl)methyl)-4-methylfuro[3,2-c]pyridin-6(5H)-one]
- IC50 [1, 3]: 336 nM

Compound: COC(c1cc(Cl)c2c(c1Cl)C(=O)N(Cc1c(=O)[nH]c(C)c3[nH]ccc13)CC2)C1CN(C)C1 (centres unmarked) [Example 11, 5,8-dichloro-7-(methoxy(1-methylazetidin-3-yl)methyl)-2-((7-methyl-5-oxo-5,6-dihydro-1H-pyrrolo[2,3-c]pyridin-4-yl)methyl)-3,4-dihydroisoquinolin-1(2H)-one]
- IC50 [1, 3]: 12 nM
- IC50 (purified EZH2 enzyme): 10 nM

- IC50 [1, 3]: 330 nM
- IC50 (purified EZH2 enzyme): 37 nM
Compound: COC(c1cc(Cl)c2c(c1Cl)C(=O)N(Cc1c(=O)[nH]c(C)c3sccc13)CC2)C1COC1 (centres unmarked) [Example 12, 4-((5,8-dichloro-7-(methoxy(oxetan-3-yl)methyl)-1-oxo-3,4-dihydroisoquinolin-2(1H)-yl)methyl)-7-methylthieno[2,3-c]pyridin-5(6H)-one]

Compound: Cc1noc(C)c1-c1cc(Cl)c2c(c1Cl)C(=O)N(Cc1c(=O)[nH]c(C)c3[nH]ccc13)CC2 [Example 13, 5,8-dichloro-7-(3,5-dimethylisoxazol-4-yl)-2-((7-methyl-5-oxo-5,6-dihydro-1H-pyrrolo[2,3-c]pyridin-4-yl)methyl)-3,4-dihydroisoquinolin-1 (2H)-one]
- IC50 (purified EZH2 enzyme): 2 nM

Compound: Cc1noc(C)c1-c1cc(Cl)c2c(c1Cl)C(=O)N(Cc1c(=O)[nH]c(C)c3ccoc13)CC2 [Example 16, 7-((5,8-dichloro-7-(3,5-dimethylisoxazol-4-yl)-1-oxo-3,4-dihydroisoquinolin-2(1H)-yl)methyl)-4-methylfuro[3,2-c]pyridin-6(5H)-one]
- IC50 [1, 3]: 7 nM
- IC50 (purified EZH2 enzyme): 3 nM

- IC50 (purified EZH2 enzyme): 1 nM
Compound: COC(c1cc(Cl)c2c(c1Cl)C(=O)N(Cc1c(=O)[nH]c(C)c3[nH]ccc13)CC2)C1COC1 (centres unmarked) [Example 17, 5,8-dichloro-7-[methoxy(oxetan-3-yl)methyl]-2-[(7-methyl-5-oxo-1,6-dihydropyrrolo[2,3-c]pyridin-4-yl)methyl]-3,4-dihydroisoquinolin-1-one]

Compound: COC(c1cc(Cl)c2c(c1Cl)C(=O)N(Cc1c(=O)[nH]c(C)c3ccoc13)CC2)C1CS(=O)(=O)C1 (centres unmarked) [Example 18, 7-((5,8-dichloro-7-((1,1-dioxidothietan-3-yl)(methoxy)methyl)-1-oxo-3,4-dihydroisoquinolin-2(1H)-yl)methyl)-4-methylfuro[3,2-c]pyridin-6(5H)-one]
- IC50 [1, 3]: 78 nM
- IC50 (purified EZH2 enzyme): 2 nM

Compound: Cc1[nH]c(=O)c(CN2CCc3c(Cl)cc(C(C)C4COC4)c(Cl)c3C2=O)c2cc[nH]c12 (centres unmarked) [Example 19, 5,8-dichloro-2-[(7-methyl-5-oxo-1,6-dihydropyrrolo[2,3-c]pyridin-4-yl)methyl]-7-[1-(oxetan-3-yl)ethyl]-3,4-dihydroisoquinolin-1-one]
- IC50 [1, 3]: 78 nM
- IC50 (purified EZH2 enzyme): 2 nM
